The numbers were not newly measured in patent US20250205255A1, “PHOSPHOLIPID COMPOSITIONS FOR TREATING INFECTIONS AND INFLAMMATION” (Celestial Therapeutics, Inc., priority 2022, published 2025), which cites them from elsewhere.

Data set [1] relates to Toll-like receptor 4 (TLR4) interacting proteins CD14 and MD-2. The conditions noted are these: through direct interactions with CD14 and MD-2.
Data set [2] concerns Respiratory Syncytial Virus (RSV). The conditions noted are these: bronchial epithelial cells.

Consider `CCCCCCCC/C=C\CCCCCCCC(=O)O[C@H](COC(=O)CCCCCCCCCCCCCCC)COP(=O)(O)OCC(O)CO` (mixture of isomers) [POPG, 1-Palmitoy-2-loleoyl-sn-glycerol-3-phospho-(1′-rac-glycerol)], for which the “inflammatory responses induced by lipopolysaccharide” value in data set [1] is “markedly attenuate”. For the same molecule, in data set [2], the “cytopathic effects induced by RSV” value was “significantly inhibited”. Further, in data set [2] (induced by RSV), the interleukin-6 production entry was “significantly inhibited” and the interleukin-8 production entry is given as “significantly inhibited”.
